This is an account of results in patent USRE42700E1, “Induction of apoptosis in cancer cells” (Sanford-Burnham Medical Research Institute, priority 2001, dated 2011).

SMILES strings stand for the structures.

In one data set the target is RXRα (Homo sapiens, UniProt P19793). The data set can be described thus: activation of RXRα on the (TREpal)2-tk-CAT reporter construct. It is filed as cell-based. The conditions noted are these: 1.0 μM.
A short description of data set [1]: CFU-GM colony formation, human bone marrow. It is filed as cell-based. The conditions noted are these: bone marrow CFU-GM progenitor cells. On the procedure:
CFU-GM Colony Formation: The CFU-GM colony assay was performed as described in Parchment et al., (J. Natl. Cancer Inst. 86: 273-280 (1994)).

The test system of a further data set is caspases in M07e cells. The data set can be described thus: caspase activation in M07e cells. It is filed as cell-based, human. On the procedure: Activation of caspases-1, -2, -3, -6, -8 and -9 was assessed using a caspase activation kit.
In data set [2] the test system is PARP in M07e cells and patient leukemic blasts. The data set can be described thus: PARP cleavage by Western blot. Type of data set: cell-based, human. The following applies: 1 μM, by 24 hours. On the procedure: Western Blots: Western blots were performed according to the protocol of Sheikh, M. S., et al., (Oncogene, 9: 3407-3415 (1994)). Logarithmically growing cells were treated with 3-Cl-AHPC for various times and cells were harvested and lysed in Laemmli lysis buffer (0.5 M Tris-HCl, pH 6.8, 0.002M EDTA, 10% glycerol, 10% sodium dodecyl sulfate (SDS), and 5% β-mercaptoethanol). Protein lysates (50 μg/lane) were electrophoresed on 12% SDS-polyacrylamide gels and transferred to nitrocellulose membranes. Membranes were blocked with 5% nonfat dried milk in PBS/0.5% Tween 20 and then incubated with the appropriate antibodies. Horseradish peroxidase-conjugated rabbit anti-mouse IgG was used as the secondary antibody, and bands were developed using the Amersham ECL non-radioactive method.

Data set [3] relates to prostate cancer LNCaP, lung cancer NCI-H460, breast cancer ZR-75-1 and MDA-MB231 cells. The data set can be described thus: DAPI staining apoptosis in cancer cell lines. The following applies: 10^−6 M. Type of data set: cell-based. On the procedure:
In FIG. 11, the indicated cancer cells were treated with 10^−6 M 3-Cl-AHPC, trypsinized, washed with PBS, fixed with 3.7% paraformaldehyde, and stained with 50 μg/ml DAPI containing 100 μg/ml DNase-free RNase A to visualize nuclei by fluorescent microscopy. The number of apoptotic cells with nuclear morphology typical of apoptosis, including nuclear fragmentation and condensation, was scored in at least 400 cells in each sample using a fluorescence microscope. In FIG. 12, the indicated cancer cells were treated with 10^−6 M 3-Cl-AHPC, trypsinized, washed with PBS, fixed with 3.7% paraformaldehyde, and stained with 50 μg/ml DAPI containing 100 μg/ml DNase-free RNase A to visualize nuclei and examined by fluorescent microscopy. Number of apoptotic cells with nuclear morphology typical of apoptosis, including nuclear fragmentation and condensation, was scored in at least 400 cells in each sample using a fluorescence microscope.

RXRα, sequence (P19793 whole entry): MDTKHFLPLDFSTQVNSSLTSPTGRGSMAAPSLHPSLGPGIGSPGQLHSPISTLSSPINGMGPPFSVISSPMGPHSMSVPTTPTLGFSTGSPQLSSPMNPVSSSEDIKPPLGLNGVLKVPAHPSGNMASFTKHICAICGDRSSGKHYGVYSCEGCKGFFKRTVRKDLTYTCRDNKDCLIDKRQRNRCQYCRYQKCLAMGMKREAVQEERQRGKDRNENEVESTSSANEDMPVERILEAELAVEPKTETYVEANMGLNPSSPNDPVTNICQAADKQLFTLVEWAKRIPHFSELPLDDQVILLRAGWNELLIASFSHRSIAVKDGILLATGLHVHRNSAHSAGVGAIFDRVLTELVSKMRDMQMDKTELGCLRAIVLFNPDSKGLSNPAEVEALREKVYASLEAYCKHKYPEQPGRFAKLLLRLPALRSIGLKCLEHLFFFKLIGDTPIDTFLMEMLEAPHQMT

In the case of `O=C(O)/C=C/c1ccc(-c2ccc(O)c(C34CC5CC(CC(C5)C3)C4)c2)c(Cl)c1` [Example 3-Cl-AHPC, (E)-4-[3-(1-Adamantyl)-4-hydroxyphenyl]-3-chlorocinnamic acid], the “activation of RXRα” value at RXRα is “does not activate”. Further, the IC90 in data set [1] is above 15 µM. Besides, in the data set with caspases in M07e cells (0.5 μM), the “increase in activity of caspase-2” value is on record as “approximately 2 fold”, the “increase in activity of caspase-3” value was “approximately 2 fold”, the “increase in activity of caspase-6” value was “approximately 2 fold” and the “increase in activity of caspase-8” value is on record as “approximately 2 fold”. Further, in the data set with caspases in M07e cells (1 μM), the “increase in activity of caspase-2” value was “approximately 4 fold”, the “increase in activity of caspase-3” value is 2.5 fold, the “increase in activity of caspase-6” value is 3 fold and the “increase in activity of caspase-8” value is “approximately 4 fold”. Also, in data set [2], the PARP cleavage result is “rapid cleavage of 116-Kd PARP”. The “induction of apoptosis (DAPI staining)” value in data set [3] is reported as “potently induced apoptosis”.
